The text below walks through data of patent US8158647B2, “Substituted pyrrolopyridines and pyrazolopyridines as kinase modulators” (SGX Pharmaceuticals, Inc., priority 2007, dated 2012).

Experiment [1] addresses T1, purified and unphosphorylated T315I Abl kinase domain (ABL_T315I_0P) (Mus musculus, UniProt P00520, T315I).
T1 construct: The c-Abl T3151 KD (kinase domain) was purified as follows; Met-Ser-Leu (vector-derived residues) (N); made in house; host or cells: E. coli BL21(DE3) strains (Codon+RIL, or pSA0145 for the lambda phosphatase co-expression plasmid)
T1 sequence (P00520 242-493 T315I limits assumed): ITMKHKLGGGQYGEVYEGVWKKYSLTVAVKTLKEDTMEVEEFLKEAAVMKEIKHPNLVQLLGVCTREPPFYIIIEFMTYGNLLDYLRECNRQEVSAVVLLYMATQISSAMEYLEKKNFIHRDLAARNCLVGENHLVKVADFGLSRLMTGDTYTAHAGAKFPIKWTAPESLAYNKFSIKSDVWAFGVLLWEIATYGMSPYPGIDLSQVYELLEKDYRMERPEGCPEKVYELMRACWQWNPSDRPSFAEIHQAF
Description: c-Abl T315I (unphosphorylated kinase domain) pyruvate kinase/lactate dehydrogenase coupled enzyme assay. It is filed as biochemical. Conditions: 10 μM ATP. An excerpt: Although the first of these examples uses the kinase domain of a mutant form of Abl T315I (“Abl T315I KD”), the kinase assays may use various forms of mutant and wild type enzymes, including, for example, the entire protein, the kinase domain, or a portion thereof (e.g. Abl Y393F). The kinases used in the assays may also be of varying phosphorylation states. In the c-Abl example, a mutant kinase at a zero phosphorylation state was used.
c-Abl Pyruvate Kinase/Lactate Dehydrogenase Coupled Enzyme Assay
In the c-Abl Pyruvate Kinase (PK)/Lactate Dehydrogenase (LDH) Coupled Assay the protein kinase dependant phosphorylation of a substrate peptide was coupled to the oxidation of NADH. The oxidation of NADH to NAD+ was detected by monitoring a decrease in absorbance at 340 nm.
Materials: Abl substrate peptide=EAIYAAPFAKKK-OH (SEQ ID NO: 1) (Biopeptide, San Diego, Calif.); […]NADH (Sigma Cat#N-8129, FW=709.4); 2M MgCl2; 1M HEPES buffer, pH 7.5; Phosphoenolpyruvate (PEP) (Sigma Cat#P-7002, FW=234); Lactate dehydrogenase (LDH) (Worthington Biochemical Cat#2756); Pyruvate Kinase (PK) (Sigma Cat#P-9136); ATP (Sigma Cat#A-3377, FW=551); Greiner 384-well UV star plate; and purified and unphosphorylated T3151 Abl kinase domain.
Stock Solutions: 10 mM NADH (7.09 mg/ml in miliQH2O) made fresh daily; 10 mM Abl substrate peptide (13.4 mg/ml in miliQH2O) stored at −20° C.; 100 mM HEPES buffer, pH 7.5 (5 ml 1M stock+45 ml miliQH2O); 100mM MgCl2 (5 ml 2M MgCl2+95 ml dH2O); 100 mM PEP (23.4 mg/ml in dH2O) stored at −20° C.; 10mM ATP (5.51 mg/ml in dH2O) stored at −20° C. (diluted 50 μl into total of 10 ml miliQH2O daily=50 μM ATP working stock); 1000 U/ml PK (U/mg varies with lot) flash-frozen under liquid N2 and stored at −80° C.; and 1000 U/ml LDH (U/mg varies with lot) flash-frozen under liquid N2 and stored at −80° C.
Standard Assay Setup for 384-well format (50 μl reaction): 300 μM NADH; 10 mM MgCl2; 2 mM PEP; 45 U/ml PK; 60 U/ml LDH; 200 μM Abl substrate peptide; 2.5 μl test compound (in DMSO); 2 μg/ml Abl kinase domain; 10 μM ATP; 100 mM HEPES buffer. Positive controls contained DMSO with no test compound. Negative controls contained 5 μl of 0.5M EDTA (50 mM in the assay). The dephosphorylated form of the c-Abl T315I mutant was used in the biochemical screening assays. The kinase reaction was initiated at time t=0 by the addition of ATP.
Activity was measured by following the time-dependent loss of NADH by absorbance spectroscopy at 340 nm. The linear portion of the resulting progress curve was then analyzed by linear regression to get the activity in absorbance units/time, reported as the slope of that best fit line (moles/unit time can be calculated from using molar extinction coefficient for NADH at 340 nm, 6250M^−1 cm^−1).
Screening data was evaluated using the equation: Z′=1-[3*(σ++σ−)/|μ+−μ−|] (Zhang, et al., 1999 J Biomol Screening 4(2) 67-73), where μ denotes the mean and σ the standard deviation. The subscript designates positive or negative controls. The Z′ score for a robust screening assay should be ≧0.50. The typical threshold=μ+−3*σ+−. Any value that falls below the threshold was designated a “hit”.
Dose response was analyzed using the equation: y=min+{(max−min)/(1+10^[compound]−logIC50)}, where y is the observed initial slope, max=the slope in the absence of inhibitor, min=the slope at infinite inhibitor, and the IC50 is the [compound] that corresponds to ½ the total observed amplitude (Amplitude=max−min).
To measure modulation, activation, or inhibition of Abl KD, a test compound was added to the assay at a range of concentrations. Inhibitors may inhibit Abl KD activity at an IC50 in the micromolar range, the nanomolar range, or, for example, in the subnanomolar range.
An open-reading frame for c-Abl was amplified from a Mus musculus (mouse) cDNA library prepared from freshly harvested mouse liver using a commercially available kit (Invitrogen) by PCR using the following primers: […]
The c-Abl T3151 KD (kinase domain) was purified as follows. […]

The target in experiment [2] is T2, ABL P210WT BAF3 cells (Homo sapiens, UniProt P00519).
T2 construct: ABL P210WT BAF3; fused on or other part: P11274 (Breakpoint cluster region protein)
Description: 96-well XTT cell survival assay, BaF3 ABL P210WT. Format: cell-based. Conditions: ABL P210 WT, 72 hours, read-out: CELL BIO ABL P210WT BAF3 XTT (IC50). Here is the method: (§1) MV4-11 and THP cells were maintained in Iscove's Modified Dulbecco's Medium supplemented with 10% fetal bovine serum (FBS) and penicillin/streptomycin, Ba/F3 cells were maintained in RPMI 1640 supplemented with 10% FBS, penicillin/streptomycin and 5 ng/ml recombinant mouse IL-3.
(§2) Compounds were tested in the following assays in duplicate.
(§3) 96-well XTT assay: Cells (e.g. BaF3 315I, M3511, or E255K cells) were grown in growth media containing various concentrations of compounds (duplicates) on a 96-well plate for 72 hours at 37° C. The starting cell number was 5000-8000 cells per well and volume was 120 μl. At the end of the 72-hour incubation, 40 μl of XTT labeling mixture (50:1 solution of sodium 3′-[1-(phenylamino-carbonyl)-3,4-tetrazolium]-bis(4-methoxy-6-nitro) benzene sulfonic acid hydrate and Electron-coupling reagent: PMS (N-methyl dibenzopyrazine methyl sulfate) were added to each well of the plate. After an additional 2-6 hours of incubation at 37° C., the absorbance reading at 405 nm with background correction at 650 nm was measured with a spectrophotometer.

For experiment [3], the target named is T3, ABL T315I BAF3 cells (Homo sapiens, UniProt P00519, T315I, cells depend on it).
T3 construct: ABL T315I BAF3; fused on or other part: P11274 (Breakpoint cluster region protein)
Description: 96-well XTT cell survival assay, BaF3 ABL T315I. Conditions: 72 hours, read-out: CELL BIO ABL T315I BAF3 XTT (IC50). It is filed as cell-based. On the procedure: as §1, §2, §3

SMILES strings stand for the structures. Where only a bound is given, the exact number is not on record here.

Turning to `CN(C)C(=O)c1cncc(-c2cnc3[nH]cc(-c4ccccc4F)c3c2Cl)n1` [6-[4-chloro-3-(2-fluoro-phenyl)-1H-pyrrolo[2,3,b]pyridine-5-], the “ABL_T315I_0P (IC50)” value in experiment [1] is given as “D (<0.01 μM)”. Further, the GI50 in experiment [2] and in experiment [3] was 100 to 1000 nM each time. Consider `COc1ccccc1-c1c[nH]c2ncc(-c3cncc(C(O)C(=O)N(C)C)c3)c(N)c12` (stereo not shown) [2-{5-[4-Amino-3-(2-methoxy-phenyl)-1H-pyrrolo[2,3-b]pyridin-5-yl]-pyridin-3-yl}-2-hydroxy-N,N-dimethyl-acetamide], for which, in experiment [1], the “ABL_T315I_0P (IC50)” value is listed as “D (<0.01 μM)”. Moreover, the GI50 in experiment [2] and in experiment [3] was 100 to 1000 nM each time. With `COc1ccccc1-c1c[nH]c2ncc(-c3cnn(C)c3)c(N)c12` [3-(2-Methoxy-phenyl)-5-(1-methyl-1H-pyrazol-4-yl)-1H-pyrrolo[2,3-b]pyridin-4-ylamine], the “ABL_T315I_0P (IC50)” value in experiment [1] is recorded as “B (1.0-0.1 μM)”. As to `CN(C)C(=O)C(O)c1cncc(-c2cnc3[nH]nc(-c4ccccc4F)c3c2Cl)c1` (stereo not shown) [2-{5-[4-Chloro-3-(2-fluoro-phenyl)-1H-pyrazolo[3,4-b]pyridin-5-yl]-pyridin-3-yl}-2-hydroxy-N,N-dimethyl-acetamide], in experiment [1], the “ABL_T315I_0P (IC50)” value was “B (1.0-0.1 μM)”. With `Nc1ncc(-c2cnc3[nH]cc(-c4cc(F)ccc4F)c3c2Cl)cc1C(=O)N1CC(O)C1` [{2-Amino-5-[4-chloro-3-(2,5-difluoro-phenyl)-1H-pyrrolo[2,3-b]pyridin-5-yl]-pyridin-3-yl}-(3-hydroxy-azetidin-1-yl)-methanone], the “ABL_T315I_0P (IC50)” value in experiment [1] is “D (<0.01 μM)”. The GI50 in experiment [2] and in experiment [3] was 100 to 1000 nM throughout. Consider `CN(C)C(=O)c1nc(-c2cnc3[nH]cc(-c4ccccc4)c3c2Cl)cnc1N` [3-Amino-6-(4-chloro-3-phenyl-1H-pyrrolo[2,3-b]pyridin-5-yl)-pyrazine-2-carboxylic acid dimethylamide], for which the “ABL_T315I_0P (IC50)” value in experiment [1] is listed as “D (<0.01 μM)”. Further, the GI50 in experiment [2] and in experiment [3] was 100 to 1000 nM in each case. With `COc1ccccc1-c1c[nH]c2ncc(-c3cncc(C(O)C(=O)N(C)C)c3)c(N(C)C)c12` (stereo not shown) [2-{5-[4-Dimethylamino-3-(2-methoxy-phenyl)-1H-pyrrolo[2,3-b]pyridin-5-yl]-pyridin-3-yl}-2-hydroxy-N,N-dimethyl-acetamide], the “ABL_T315I_0P (IC50)” value in experiment [1] is given as “B (1.0-0.1 μM)”. Turning to `COc1cc(Cl)ccc1-c1c[nH]c2ncc(-c3cnc(N)c(C(=O)N(C)C)c3)c(Cl)c12` [2-Amino-5-[4-chloro-3-(4-chloro-2-methoxy-phenyl)-1H-pyrrolo[2,3-b]pyridin-5-yl]-N,N-dimethyl-nicotinamide], the “ABL_T315I_0P (IC50)” value in experiment [1] is listed as “D (<0.01 μM)”. In addition, the GI50 in experiment [2] and in experiment [3] was 10 to 100 nM throughout. In the case of `COc1ccccc1-c1c[nH]c2ncc(-c3cncc(C(O)C(=O)N(C)C)c3)c(C#N)c12` (stereo not shown) [2-{5-[4-Cyano-3-(2-methoxy-phenyl)-1H-pyrrolo[2,3-b]pyridin-5-yl]-pyridin-3-yl}-2-hydroxy-N,N-dimethyl-acetamide], the “ABL_T315I_0P (IC50)” value in experiment [1] is listed as “D (<0.01 μM)”. Further, the GI50 in experiment [2] and in experiment [3] was over 1000 nM each time. Take `COc1ccccc1-c1c[nH]c2ncc(Br)c(Cl)c12` [5-Bromo-4-chloro-3-(2-methoxy-phenyl)-1H-pyrrolo[2,3-b]pyridine]: the “ABL_T315I_0P (IC50)” value in experiment [1] is on record as “C (0.1-0.01 μM)”. On to `CC(C)c1ncncc1-c1c[nH]c2ncc(-c3cncc(C(O)C(=O)N(C)C)c3)c(Cl)c12` (stereo not shown) [2-{5-[4-Chloro-3-(4-isopropyl-pyrimidin-5-yl)-1H-pyrrolo[2,3-b]pyridin-5-yl]-pyridin-3-yl}-2-hydroxy-N,N-dimethyl-acetamide], for which the “ABL_T315I_0P (IC50)” value in experiment [1] was “B (1.0-0.1 μM)”. As to `CN(C)C(=O)C(=O)c1cncc(-c2cnc3[nH]cc(-c4ccc(F)cc4)c3c2Cl)c1` [2-{5-[4-Chloro-3-(4-fluoro-phenyl)-1H-pyrrolo[2,3-b]pyridin-5-yl]-pyridin-3-yl}-N,N-dimethyl-2-oxo-acetamide], the “ABL_T315I_0P (IC50)” value in experiment [1] is on record as “B (1.0-0.1 μM)”.

Turning to `COc1cc(C#N)ccc1-c1c[nH]c2ncc(-c3cnc(N)c(C(=O)N(C)C)c3)c(Cl)c12` [2-Amino-5-[4-chloro-3-(4-cyano-2-methoxy-phenyl)-1H-pyrrolo[2,3-b]pyridin-5-yl]-N,N-dimethyl-nicotinamide], the “ABL_T315I_0P (IC50)” value in experiment [1] is recorded as “C (0.1-0.01 μM)”. Turning to `CSc1c(Br)cnc2[nH]cc(I)c12` [5-Bromo-3-iodo-4-methylsulfanyl-1H-pyrrolo[2,3-b]pyridine], in experiment [1], the “ABL_T315I_0P (IC50)” value was “A (>1.0 μM)”. Still for that read-out and setting: the result for `CN(C)C(=O)C(O)c1cncc(-c2cnc3[nH]nc(-c4ccccc4)c3c2Cl)c1` (stereo not shown) [2-[5-(4-Chloro-3-phenyl-1H-pyrazolo[3,4-b]pyridin-5-yl)-pyridin-3-yl]-2-hydroxy-N,N-dimethyl-acetamide] reads “B (1.0-0.1 μM)”. On the same count and under the same terms, in the case of `COc1ccccc1-c1c[nH]c2ncc(Br)c(NCCO)c12` [2-[5-Bromo-3-(2-methoxy-phenyl)-1H-pyrrolo[2,3-b]pyridin-4-ylamino]-ethanol] it was “B (1.0-0.1 μM)”.
